The values below come from paper PMC6954720, “Discovery of retinoic acid receptor agonists as proliferators of cardiac progenitor cells through a phenotypic screening approach” (Stem Cells Translational Medicine, 2019).

A value given as a limit tells only on which side of the number the result lay.

The subject of the first experiment is human iPS-derived cardiac progenitor cells (CPCs). Briefly: CPC proliferation assay (nuclear count). Type of experiment: cell-based.
Conditions: not given
The protocol: The CPC proliferation assay including image and data analysis was performed as previously described.14 Cardiac progenitor marker antibodies are listed in Table S3.
A library of 10 000 compounds was screened in singlicate at three concentrations (0.1, 1.0, and 10 μM) in the CPC proliferation assay. Each plate contained neutral controls, 0.1% DMSO and maximum controls, 100 ng/mL human basic fibroblast growth factor (FGF; Invitrogen, ThermoFisher Scientific, Waltham, Massachusetts). The data were analyzed using the Genedata Screener software (Genedata, Inc, Basel, Switzerland). […] Results were calculated using the following calculation method: compound % effect = 100 × [(X − min)/(max − min)], where X represents a normalized value for the compound based on the neutral and maximum controls.
The library was screened in three‐point concentration response (CR) at 0.1, 1.0, and 10 μM measuring proliferation of human induced pluripotent stem (iPS)‐derived CPCs with nuclear count, as measured by Hoechst staining, as the primary endpoint.
On to `C/C(=C\c1ccc(C(=O)O)cc1)c1ccc2c(c1)C(C)(C)CCC2(C)C` [TTNPB], for which the “CPC proliferation, result in words” value was “EC50 values in the low nanomolar range”.
Regarding `CC1=C(/C=C/C(C)=C\C=C\C(C)=C\C(=O)O)C(C)(C)CCC1` [9‐cis‐retinoic acid], the “CPC proliferation, result in words” value was “inactive”.
Consider `CC1(C)CCC(C)(C)c2cc(C3(c4ccc(C(=O)O)cc4)OCCO3)ccc21` [SR 11237], for which the “CPC proliferation, result in words” value is “inactive”.
As to `CC1(C)CCC(C)(C)c2cc(C(=O)Nc3ccc(C(=O)O)c(F)c3)ccc21` [AGN 193312], the “CPC proliferation, result in words” value was “EC50 values in the low nanomolar range”.

In another experiment the target is T1, RARA (alpha) ligand binding domain (Homo sapiens, UniProt P10276).
T1 sequence (P10276 183-417 limits assumed): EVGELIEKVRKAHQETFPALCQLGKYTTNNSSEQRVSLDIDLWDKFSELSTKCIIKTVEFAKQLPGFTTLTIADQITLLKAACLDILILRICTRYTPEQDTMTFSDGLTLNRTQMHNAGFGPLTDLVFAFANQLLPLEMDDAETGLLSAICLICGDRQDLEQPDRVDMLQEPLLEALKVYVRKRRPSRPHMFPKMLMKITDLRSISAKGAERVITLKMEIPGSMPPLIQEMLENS
Briefly: RAR LBD-SRC1-2 coactivator peptide recruitment assay, agonist format, RARA. The class given is biochemical.
Conditions: not given
The protocol: (§1) RAR ligand binding domain (LBD)‐SRC1‐2 coactivator peptide (NCOA1_677‐700 biotinylated) recruitment assays were established for the three RAR isotypes RARA (alpha), RARB (beta), and RARG (gamma) to determine relative potencies. […] A total of 0.4 μL of a fixed concentration range of test ligands dissolved in dimethyl sulphoxide (DMSO) was added to assay plates using an acoustic liquid dispenser. […] The raw data were transformed to % effect using the equation: compound % effect = 100 × [(X − min)/(max − min)], where X represents the effect in the presence of test compound and max and min are the effects in presence of the maximum and minimum controls, respectively.
(§2) The data were plotted to generate concentration‐response profiles and the concentration‐response curves were fit to the data using the four‐parameter logistic smart fit method in the Genedata Screener software (Genedata, Inc).
Take `CC1(C)CCC(C)(C)c2cc(C(=O)Nc3ccc(C(=O)O)c(F)c3)ccc21` [AGN 193312]: the “top effect (% of maximum control)” value turned out to be 159%.

Staying with this experiment, now noted: read-out: RARα pEC50 (converted).
With `CC1(C)CCC(C)(C)c2cc(C3(c4ccc(C(=O)O)cc4)OCCO3)ccc21` [SR 11237], the EC50 is greater than 20000 nM.
`CC1(C)CCC(C)(C)c2cc(C(=O)Nc3ccc(C(=O)O)c(F)c3)ccc21` [AGN 193312]: the EC50 was 3.98 nM.

The next experiment deals with T2, RARB (beta) ligand binding domain (Homo sapiens, UniProt P10826).
T2 sequence (P10826 183-417 limits assumed): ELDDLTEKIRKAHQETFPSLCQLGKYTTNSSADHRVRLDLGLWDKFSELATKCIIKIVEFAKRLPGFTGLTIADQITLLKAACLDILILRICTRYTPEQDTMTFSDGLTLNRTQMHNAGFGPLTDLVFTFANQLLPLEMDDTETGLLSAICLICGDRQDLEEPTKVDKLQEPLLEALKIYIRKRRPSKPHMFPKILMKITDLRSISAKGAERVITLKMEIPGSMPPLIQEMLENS
Briefly: RAR LBD-SRC1-2 coactivator peptide recruitment assay, agonist format, RARB. The class given is biochemical.
Conditions: not given
On the procedure: as §1, §2
With `CC1(C)CCC(C)(C)c2cc(C(=O)Nc3ccc(C(=O)O)c(F)c3)ccc21` [AGN 193312], the “maximal effect (% top effect)” value is given as 100%.

Still in this experiment, the particulars now being: read-out: RARβ pEC50 (converted).
For `CC1(C)CCC(C)(C)c2cc(C3(c4ccc(C(=O)O)cc4)OCCO3)ccc21` [SR 11237], the EC50 is greater than 20000 nM.
On the same count and under the same terms, next, `CC1(C)CCC(C)(C)c2cc(C(=O)Nc3ccc(C(=O)O)c(F)c3)ccc21` [AGN 193312]: 10 nM.

The target in the next experiment is T3, RARG (gamma) ligand binding domain (Homo sapiens, UniProt P13631).
T3 sequence (P13631 185-419 limits assumed): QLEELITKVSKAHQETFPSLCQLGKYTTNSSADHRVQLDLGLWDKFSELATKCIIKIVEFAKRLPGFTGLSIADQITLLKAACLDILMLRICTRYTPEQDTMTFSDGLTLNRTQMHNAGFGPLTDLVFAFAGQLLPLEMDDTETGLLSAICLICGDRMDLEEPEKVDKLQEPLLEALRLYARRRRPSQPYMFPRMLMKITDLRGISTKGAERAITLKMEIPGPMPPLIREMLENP
Briefly: RAR LBD-SRC1-2 coactivator peptide recruitment assay, agonist format, RARG. Type of experiment: biochemical.
Conditions: not given
On the procedure: as §1, §2
Take `CC1(C)CCC(C)(C)c2cc(C(=O)Nc3ccc(C(=O)O)c(F)c3)ccc21` [AGN 193312]: the “RARγ pEC50 (% top effect): % top effect” value is on record as 88%.

The experiment is the same for the next values; noted with them: read-out: RARγ pEC50 (converted).
Consider `CC1(C)CCC(C)(C)c2cc(C3(c4ccc(C(=O)O)cc4)OCCO3)ccc21` [SR 11237], for which the EC50 was greater than 20000 nM.
Same read-out and setting: with `CC1(C)CCC(C)(C)c2cc(C(=O)Nc3ccc(C(=O)O)c(F)c3)ccc21` [AGN 193312] the figure was 100 nM.

Another experiment concerns the target T1, RARA (alpha) ligand binding domain. Briefly: RAR coactivator peptide recruitment assay, antagonist format, RARA. The class given is biochemical. Conditions: read-out: RARα pIC50 (converted). On the procedure:
as §1, §2
As to `CC1(C)CCC(C)(C)c2cc(C3(c4ccc(C(=O)O)cc4)OCCO3)ccc21` [SR 11237], the IC50 was greater than 20000 nM.

The target in the next experiment is T2, RARB (beta) ligand binding domain. Briefly: RAR coactivator peptide recruitment assay, antagonist format, RARB. The class given is biochemical. Conditions: read-out: RARβ pIC50 (converted). The protocol: as §1, §2
`CC1(C)CCC(C)(C)c2cc(C3(c4ccc(C(=O)O)cc4)OCCO3)ccc21` [SR 11237]: the IC50 was greater than 20000 nM.

In the next experiment the test system is HuES6 hPSC-derived cardiac progenitors. Briefly: HuES6-derived cardiac progenitors replated on day 5: cell number, RT-qPCR, immunocytochemistry. The class given is cell-based, human. As to conditions: 1 μM, day-5 replated cells, 4 days. On the procedure: Insulin and signaling agonists were omitted after 1 day. On days 2‐3, the nascent mesodermal cells were specified to the cardiac lineage using 0.2 μM C‐59 (R&D Tocris) supplementation. Culture medium was replaced daily.
Basal cardiac progenitor medium was composed of DMEM/F12 (ThermoFisher Scientific), insulin/transferrin/selenium supplement, 0.1% human serum albumin (Biological Industries Inc, Cromwell, Connecticut), 1× chemically defined lipids (ThermoFisher Scientific), and antibiotics. RAR agonists (1 μM) were added from the day of passaging the cells. Samples were harvested and monitored after 4 days of treatment.
Cell numbers per well were quantified following single‐cell dissociation with Accutase and using standard Neubauer counting chambers. RT‐qPCR and immunocytochemistry were performed according to standard procedures. RPL37A served as housekeeping gene for normalization.
For orientation: Real-time PCR tracks product formation cycle by cycle.
For `C/C(=C\c1ccc(C(=O)O)cc1)c1ccc2c(c1)C(C)(C)CCC2(C)C` [TTNPB], the “terminal cardiac differentiation, in words” value is on record as “pronounced inhibition of terminal cardiac differentiation”.

Staying with this experiment, now noted: 1 μM, day-5 replated cells, 4 days; with the exception of ISL1.
Take `C/C(=C\c1ccc(C(=O)O)cc1)c1ccc2c(c1)C(C)(C)CCC2(C)C` [TTNPB]: the “expression of cardiac progenitor markers vs untreated” value is on record as “enhanced the expression of cardiac progenitor markers”.

The experiment is the same for the next values; noted with them: 1.0 μM, day-5 replated progenitors, 4 days of exposure.
As for `C/C(=C\c1ccc(C(=O)O)cc1)c1ccc2c(c1)C(C)(C)CCC2(C)C` [TTNPB], the “effect on cell proliferation / cell numbers, in words” value is “strong positive effects on cell proliferation”.

The subject of the next experiment is human iPS-derived cardiac progenitor cells (CPCs). Briefly: CPC proliferation assay (nuclear count). As to conditions: iPSC-derived CPC proliferation, 10-point concentration response, read-out: CPC pEC50 (converted). Type of experiment: cell-based.
Turning to `C/C(=C\c1ccc(C(=O)O)cc1)c1ccc2c(c1)C(C)(C)CCC2(C)C` [TTNPB], the EC50 is 3.16 nM.
The same measure, in the same setting: next, `CC1=C(/C=C/C(C)=C\C=C\C(C)=C\C(=O)O)C(C)(C)CCC1` [9‐cis‐retinoic acid]: greater than 10000 nM; `CC1(C)CCC(C)(C)c2cc(C3(c4ccc(C(=O)O)cc4)OCCO3)ccc21` [SR 11237]: greater than 10000 nM; `CC1(C)CCC(C)(C)c2cc(C(=O)Nc3ccc(C(=O)O)c(F)c3)ccc21` [AGN 193312]: 7.94 nM.
